Measurements: ChEMBL document CHEMBL2021914, “Inhibition of platelet adhesion by peptidomimetics mimicking the interactive β-hairpin of glycoprotein Ibα” (Bioorg Med Chem Lett, 2012)
Active and inactive are the calls of the source. The rule behind the calls is not given here. Where a SMILES comes first, the peptide text is derived from it. Bridges are numbered along the chain shown (N, C = ends).

Legend:
[1] = target: von Willebrand factor (Homo sapiens) (UniProt P04275); test: Inhibition of GPIbalpha-human vWF binding assessed as platelet rolling velocity at 100 uM preincubated for 5 mins by parallel plate flow assay with real time imaging microscopy (reference value: 7.1 um/sec)
[2] = target: von Willebrand factor (Homo sapiens) (UniProt P04275); test: Inhibition of GPIbalpha-vWF binding assessed as ristocetin-induced platelet agglutination at 100 uM after 2 mins by static agglutination assay using washed platelets from male (reference value: 58%); parameters: scale not given: the % may be the effect or the level left
[3] = target: von Willebrand factor (Homo sapiens) (UniProt P04275); test: Inhibition of GPIbalpha-vWF binding assessed as ristocetin-induced platelet agglutination at 100 uM after 2 mins by static agglutination assay using washed platelets from female (reference value: 61.7%); parameters: scale not given: the % may be the effect or the level left
[4] = target: von Willebrand factor (Homo sapiens) (UniProt P04275); test: Inhibition of GPIbalpha-vWF binding assessed as constant shear stress at 120 dynes/cm'2-induced platelet agglutination at 10 uM preincubated for 5 mins by cone and plate rheometer analysis relative to control using male platelet rich plasma (reference value: 100%); parameters: scale not given: the % may be the effect or the level left
[5] = target: von Willebrand factor (Homo sapiens) (UniProt P04275); test: Inhibition of GPIbalpha-vWF binding assessed as constant shear stress at 120 dynes/cm'2-induced platelet agglutination at 10 uM preincubated for 5 mins by cone and plate rheometer analysis relative to control using female platelet rich plasma (reference value: 100%); parameters: scale not given: the % may be the effect or the level left
[6] = target: von Willebrand factor (Homo sapiens) (UniProt P04275); test: Inhibition of GPIbalpha-vWF binding assessed as inhibition of ristocetin-induced platelet agglutination at 100 uM after 2 mins by static agglutination assay
[7] = target: von Willebrand factor (Homo sapiens) (UniProt P04275); test: Inhibition of GPIbalpha-vWF binding assessed as ristocetin-induced platelet agglutination at 1 uM after 2 mins by static agglutination assay using washed platelets (reference value: 66.5%); parameters: scale not given: the % may be the effect or the level left
[8] = target: von Willebrand factor (Homo sapiens) (UniProt P04275); test: Inhibition of GPIbalpha-vWF binding assessed as ristocetin-induced platelet agglutination at 10 uM after 2 mins by static agglutination assay using washed platelets (reference value: 66.5%); parameters: scale not given: the % may be the effect or the level left
[9] = target: von Willebrand factor (Homo sapiens) (UniProt P04275); test: Inhibition of GPIbalpha-vWF binding assessed as ristocetin-induced platelet agglutination at 100 uM after 2 mins by static agglutination assay using washed platelets (reference value: 66.5%); parameters: scale not given: the % may be the effect or the level left
[10] = target: von Willebrand factor (Homo sapiens) (UniProt P04275); test: Inhibition of GPIbalpha-vWF binding assessed as ristocetin-induced platelet agglutination at 1 uM after 2 mins by static agglutination assay using platelet rich plasma (reference value: 76.3%); parameters: scale not given: the % may be the effect or the level left
[11] = target: von Willebrand factor (Homo sapiens) (UniProt P04275); test: Inhibition of GPIbalpha-vWF binding assessed as ristocetin-induced platelet agglutination at 10 uM after 2 mins by static agglutination assay using platelet rich plasma (reference value: 76.3%); parameters: scale not given: the % may be the effect or the level left
[12] = target: von Willebrand factor (Homo sapiens) (UniProt P04275); test: Inhibition of GPIbalpha-vWF binding assessed as ristocetin-induced platelet agglutination at 100 uM after 2 mins by static agglutination assay using platelet rich plasma (reference value: 76.3%); parameters: scale not given: the % may be the effect or the level left
[13] = target: von Willebrand factor (Homo sapiens) (UniProt P04275); test: Inhibition of GPIbalpha-vWF binding assessed as inhibition of ristocetin-induced platelet agglutination at 100 uM after 2 mins by static agglutination assay using washed platelets from male
[14] = target: von Willebrand factor (Homo sapiens) (UniProt P04275); test: Inhibition of GPIbalpha-vWF binding assessed as inhibition of ristocetin-induced platelet agglutination at 100 uM after 2 mins by static agglutination assay using washed platelets from female
[15] = target: von Willebrand factor (Homo sapiens) (UniProt P04275); test: Inhibition of GPIbalpha-human vWF binding assessed as decrease in arterial shear-induced platelet adhesion to vWF measuring number of platelets adhered during flow at 100 uM preincubated for 5 mins by parallel plate flow assay with real time imaging microscopy
[16] = target: von Willebrand factor (Homo sapiens) (UniProt P04275); test: Inhibition of GPIbalpha-human vWF binding assessed as decrease in arterial shear-induced platelet adhesion to vWF measuring number of platelets adhered after flow at 100 uM preincubated for 5 mins by parallel plate flow assay with real time imaging microscopy

Sequence of von Willebrand factor (Homo sapiens) (P04275 whole entry): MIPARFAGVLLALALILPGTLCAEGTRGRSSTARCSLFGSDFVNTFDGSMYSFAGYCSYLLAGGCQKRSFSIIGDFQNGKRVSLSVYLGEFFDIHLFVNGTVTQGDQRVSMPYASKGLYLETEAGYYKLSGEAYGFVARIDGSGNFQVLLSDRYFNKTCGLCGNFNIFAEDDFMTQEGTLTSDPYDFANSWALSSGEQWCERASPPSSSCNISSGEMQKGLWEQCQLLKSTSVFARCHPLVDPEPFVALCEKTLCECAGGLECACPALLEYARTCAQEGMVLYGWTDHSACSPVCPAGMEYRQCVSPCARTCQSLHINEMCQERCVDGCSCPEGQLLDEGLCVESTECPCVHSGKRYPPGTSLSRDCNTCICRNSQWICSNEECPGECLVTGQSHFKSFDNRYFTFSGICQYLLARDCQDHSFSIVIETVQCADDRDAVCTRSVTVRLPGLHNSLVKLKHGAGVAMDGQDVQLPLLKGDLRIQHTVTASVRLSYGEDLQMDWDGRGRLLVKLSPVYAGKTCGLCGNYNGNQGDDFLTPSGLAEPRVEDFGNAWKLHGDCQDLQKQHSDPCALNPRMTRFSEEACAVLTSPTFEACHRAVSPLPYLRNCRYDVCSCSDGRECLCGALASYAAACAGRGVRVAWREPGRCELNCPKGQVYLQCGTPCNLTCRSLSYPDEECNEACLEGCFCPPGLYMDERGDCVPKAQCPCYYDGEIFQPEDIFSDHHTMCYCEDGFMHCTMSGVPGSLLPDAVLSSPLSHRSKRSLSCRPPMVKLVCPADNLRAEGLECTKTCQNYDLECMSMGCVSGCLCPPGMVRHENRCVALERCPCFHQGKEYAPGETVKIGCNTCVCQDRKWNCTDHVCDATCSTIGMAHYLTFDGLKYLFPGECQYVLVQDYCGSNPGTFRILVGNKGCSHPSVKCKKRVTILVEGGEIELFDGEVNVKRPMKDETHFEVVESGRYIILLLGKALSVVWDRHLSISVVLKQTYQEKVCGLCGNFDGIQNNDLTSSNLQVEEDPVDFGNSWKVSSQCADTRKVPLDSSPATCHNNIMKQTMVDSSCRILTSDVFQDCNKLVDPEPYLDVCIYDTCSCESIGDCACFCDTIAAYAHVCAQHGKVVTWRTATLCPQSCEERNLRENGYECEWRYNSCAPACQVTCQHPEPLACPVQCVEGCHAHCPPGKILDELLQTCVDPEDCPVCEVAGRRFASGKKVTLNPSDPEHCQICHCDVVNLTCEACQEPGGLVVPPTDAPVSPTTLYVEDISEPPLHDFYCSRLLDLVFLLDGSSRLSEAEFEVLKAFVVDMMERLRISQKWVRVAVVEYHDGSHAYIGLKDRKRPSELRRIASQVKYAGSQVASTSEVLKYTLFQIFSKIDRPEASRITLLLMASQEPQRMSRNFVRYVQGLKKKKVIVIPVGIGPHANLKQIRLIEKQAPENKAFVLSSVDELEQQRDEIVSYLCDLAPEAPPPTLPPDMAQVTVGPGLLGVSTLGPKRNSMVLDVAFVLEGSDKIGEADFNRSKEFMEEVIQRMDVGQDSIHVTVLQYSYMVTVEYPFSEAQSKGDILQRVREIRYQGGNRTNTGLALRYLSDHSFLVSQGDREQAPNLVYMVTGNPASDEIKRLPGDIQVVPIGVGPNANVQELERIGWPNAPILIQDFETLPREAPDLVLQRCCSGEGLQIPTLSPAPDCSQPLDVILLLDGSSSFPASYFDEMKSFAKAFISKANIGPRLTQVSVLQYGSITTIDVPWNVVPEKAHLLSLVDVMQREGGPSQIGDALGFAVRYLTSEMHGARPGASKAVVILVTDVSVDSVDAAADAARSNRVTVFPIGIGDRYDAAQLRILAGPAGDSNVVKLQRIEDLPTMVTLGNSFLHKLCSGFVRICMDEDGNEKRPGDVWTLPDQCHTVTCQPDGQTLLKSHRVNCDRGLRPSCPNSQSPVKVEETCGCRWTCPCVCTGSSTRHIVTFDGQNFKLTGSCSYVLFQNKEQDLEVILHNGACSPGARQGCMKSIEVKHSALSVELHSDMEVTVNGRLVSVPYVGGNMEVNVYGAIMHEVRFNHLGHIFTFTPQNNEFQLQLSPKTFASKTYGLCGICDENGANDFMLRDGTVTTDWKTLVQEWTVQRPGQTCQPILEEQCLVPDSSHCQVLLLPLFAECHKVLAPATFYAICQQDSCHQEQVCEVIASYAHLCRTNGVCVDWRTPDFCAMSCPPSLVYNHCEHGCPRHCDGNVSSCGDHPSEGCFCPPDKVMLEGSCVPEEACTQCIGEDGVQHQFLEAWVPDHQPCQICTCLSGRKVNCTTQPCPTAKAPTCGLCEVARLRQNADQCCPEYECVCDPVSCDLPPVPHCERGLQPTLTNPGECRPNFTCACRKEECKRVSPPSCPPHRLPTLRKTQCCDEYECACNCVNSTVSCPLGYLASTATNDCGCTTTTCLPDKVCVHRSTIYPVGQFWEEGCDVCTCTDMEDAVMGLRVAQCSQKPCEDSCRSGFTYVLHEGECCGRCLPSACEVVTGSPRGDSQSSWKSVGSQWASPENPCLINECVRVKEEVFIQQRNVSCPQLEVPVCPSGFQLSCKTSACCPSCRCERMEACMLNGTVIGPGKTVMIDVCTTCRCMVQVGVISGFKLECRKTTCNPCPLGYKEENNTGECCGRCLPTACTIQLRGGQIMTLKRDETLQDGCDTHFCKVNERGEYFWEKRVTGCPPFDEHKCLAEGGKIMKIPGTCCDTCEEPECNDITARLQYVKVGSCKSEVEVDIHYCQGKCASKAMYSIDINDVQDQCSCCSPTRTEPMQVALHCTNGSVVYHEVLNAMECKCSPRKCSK

Activity [1] [um/s] | Activity [2] [%] | Activity [3] [%] | inhibition [6] [%] | Compound | also measured
5.6 | 58.8 | 59.7 | – | CC(C)[C@H](NC(=O)CNC(=O)[C@H](CCC(N)=O)NC(=O)[C@H](CCCCN)NC(=O)[C@H](Cc1c[nH]c2ccccc12)NC(=O)[C@H]1CCCN1C(=O)[C@@H]1CCCN1C(=O)[C@@H](NC(=O)[C@H](C)NC(=O)[C@H](CCCCN)NC(=O)[C@@H](NC(=O)[C@@H](N)CC(=O)O)C(C)C)C(C)C)C(=O)O | Activity [4]: 111%; Activity [5]: 99.7%
– | – | – | 42.1 | CC(=O)N[C@@H](CO)C(=O)N[C@@H](Cc1cnc[nH]1)C(=O)N[C@@H](CC(C)C)C(=O)N[C@@H](CCC(=O)O)C(=O)N[C@H](C(=O)N[C@@H](CC(N)=O)C(=O)N1CCC[C@H]1C(=O)N1CCC[C@@H]1C(=O)N[C@@H](CCC(=O)O)C(=O)N[C@H](C(=O)N[C@@H](CO)C(=O)N[C@@H](CCCCN)C(=O)N[C@H](C(=O)N[C@@H](C)C(=O)O)C(C)C)C(C)C)C(C)C | –
– | – | – | 10.4 | CC(C)C[C@@H]1NC(=O)[C@H](Cc2cnc[nH]2)NC(=O)[C@H](CO)NC(=O)[C@H](C)NC(=O)[C@H](C(C)C)NC(=O)[C@H](CCCCN)NC(=O)[C@H](CO)NC(=O)[C@H](C(C)C)NC(=O)[C@H](CCC(=O)O)NC(=O)[C@H]2CCCN2C(=O)[C@@H]2CCCN2C(=O)[C@H](CC(N)=O)NC(=O)[C@H](C(C)C)NC(=O)[C@H](CCC(=O)O)NC1=O | –
7 | 36 | 57.3 | 28.5 | CC(C)[C@H](NC(=O)CNC(=O)[C@@H]1CSSC[C@H](NC(=O)[C@@H](NC(=O)[C@@H](N)CC(=O)O)C(C)C)C(=O)N[C@@H](C)C(=O)N[C@@H](C(C)C)C(=O)N2CCC[C@H]2C(=O)N2CCC[C@@H]2C(=O)N[C@@H](Cc2c[nH]c3ccccc23)C(=O)N[C@@H](CCCCN)C(=O)N1)C(N)=O | –
– | – | – | 8.9 | CC(C)[C@@H]1NC(=O)CNC(=O)[C@H](CCC(N)=O)NC(=O)[C@H](CCCCN)NC(=O)[C@H](Cc2c[nH]c3ccccc23)NC(=O)[C@H](C(C)C)NC(=O)[C@H]2CCCN2C(=O)[C@@H]2CCCN2C(=O)[C@H]([C@@H](C)O)NC(=O)[C@H](C(C)C)NC(=O)[C@H](C)NC(=O)[C@H](CCCCN)NC(=O)[C@H](C(C)C)NC(=O)[C@H](CC(=O)O)NC1=O | –

The remaining lines, values behind:

Compound | Activity [1] [um/s] | Activity [2] [%] | Activity [3] [%] | inhibition [6] [%] | also measured
CC(C)[C@@H]1NC(=O)CNC(=O)[C@@H]2CSSC[C@H](NC(=O)[C@H](C(C)C)NC(=O)[C@H](CC(=O)O)NC1=O)C(=O)N[C@@H](C)C(=O)N[C@@H](C(C)C)C(=O)N1CCC[C@H]1C(=O)N1CCC[C@@H]1C(=O)N[C@@H](Cc1c[nH]c3ccccc13)C(=O)N[C@@H](CCCCN)C(=O)N2 | 8.1 | 32 | 50.7 | 43.9 | Activity [7]: 57.5%; Activity [8]: 46%; Activity [9]: 37.3%; Activity [10]: 61.7%; Activity [11]: 57.3%; Activity [12]: 46.7%; inhibition [13]: 44.8%; inhibition [14]: 17.8%; Activity [4]: 107%; Activity [5]: 122%
CC(C)C[C@@H]1NC(=O)[C@H](Cc2cnc[nH]2)NC(=O)[C@H](CO)NC(=O)[C@H](C)NC(=O)[C@H](C(C)C)NC(=O)[C@H](CCCCN)NC(=O)[C@H](CO)NC(=O)[C@H](C(C)C)NC(=O)[C@H](CCC(=O)O)NC(=O)[C@@H](N)CSSC[C@@H](C(=O)N[C@@H](CC(=O)O)C(=O)N[C@@H](CCCCN)C(N)=O)NC(=O)[C@H](CC(N)=O)NC(=O)[C@H](C(C)C)NC(=O)[C@H](CCC(=O)O)NC1=O (H-CEVSKVASHLEVNCDK-NH2; disulfide 1-14) | – | – | – | 7.1 | –
CC(C)[C@@H]1NC(=O)CNC(=O)[C@H](CCC(N)=O)NC(=O)[C@H](CCCCN)NC(=O)[C@H](Cc2c[nH]c3ccccc23)NC(=O)[C@H](C(C)C)NC(=O)[C@H](Cc2ccc(O)cc2)NC(=O)[C@H](C(C)C)NC(=O)[C@@H]2CCCN2C(=O)CNC(=O)[C@@H]2CCCN2C(=O)[C@H](CC(N)=O)NC(=O)[C@H](CO)NC(=O)[C@H]([C@@H](C)O)NC(=O)[C@H](C(C)C)NC(=O)[C@H](C)NC(=O)[C@H](CCCCN)NC(=O)[C@H](C(C)C)NC(=O)[C@H](CC(=O)O)NC1=O (cyclo(AVTSNPGPVYVWKQGVDVK)) | – | – | – | 40.5 | inhibition [15]: Active; inhibition [16]: Active
H-PGPVYVWKQGVDVKAVTSN-OH | – | – | – | – | inhibition [15]: inactive; inhibition [16]: inactive
CC(C)[C@@H]1NC(=O)CNC(=O)[C@@H]2CSSC[C@H](NC(=O)[C@H](C(C)C)NC(=O)[C@H](CC(=O)O)NC1=O)C(=O)N[C@@H](C)C(=O)N[C@@H](C(C)C)C(=O)N[C@@H]([C@@H](C)O)C(=O)N1CCC[C@H]1C(=O)N1CCC[C@@H]1C(=O)N[C@@H](C(C)C)C(=O)N[C@@H](Cc1c[nH]c3ccccc13)C(=O)N[C@@H](CCCCN)C(=O)N2 | – | – | – | 44.6 | –
